Laboratory results taken from patent US10611732B2, “HIV replication inhibiting pyrimidines” (Janssen Pharmaceutica NV, priority 2001, dated 2020).
Where two headings read alike, the source gives them in different places.

How the values were obtained:
HIV = assay: microbe, parasite or virus in culture; conditions: for pIC50 (−log IC50): HIV-infected MT-4 cells; for pIC50 (−log IC50) / IC50: dose achieving 50% protection, MTT, OD 540 nm; for pSI (pCC50-pIC50): selectivity index, ratio of CC50 to IC50, as log difference; for IC50: Human immunodeficiency virus 1, MT4, read-out: pIC50 (−log IC50), HIV-infected MT-4 cells (converted)
Method: (§1) A rapid, sensitive and automated assay procedure was used for the in vitro evaluation of anti-HIV agents. An […] T4-cell line, MT-4, which was previously shown (Koyanagi et al., Int. J Cancer, 36, 445-451, 1985) to be highly susceptible to and permissive for HIV infection, served as the target cell line. Inhibition of the HIV-induced cytopathic effect was used as the end point. The viability of both HIV- and mock-infected cells was assessed spectrophotometrically via the in situ reduction of 3-(4,5-dimethylthiazol-2-yl)-2,5-diphenyltetrazolium bromide (MTT). The 50% cytotoxic concentration (CC50 in M) was defined as the concentration of compound that reduced the absorbance of the mock-infected control sample by 50%. The percent protection achieved by the compound in HIV-infected cells was calculated by the following formula:
(§2) [formula] whereby (ODT)HIV is the optical density measured with a given concentration of the test compound in HIV-infected cells; (ODC)HIV is the optical density measured for the control untreated HIV-infected cells; (ODC)MOCK is the optical density measured for the control untreated mock-infected cells; all optical density values were determined at 540 nm. The dose achieving 50% protection according to the above formula was defined as the 50% inhibitory concentration (IC50 in M). The ratio of CC50 to IC50 was defined as the selectivity index (SI).
(§3) Table 6 lists the pIC50 (−log IC50), pCC50 (−log CC50) and pSI (pCC50-pIC50) values for the compounds of formula (I).

mock-infected MT-4 cells = assay: cytotoxicity in mock-infected MT-4 cells (MTT)
Method: as §1, §2, §3

[1] = mock-infected MT-4 cells, concentration reducing absorbance of control by 50%, MTT

## Cc1cc(C=C(C#N)CC#N)cc(C)c1Nc1ccnc(Nc2ccc(C#N)cc2)n1 (mixture of isomers) [Compound 147]
HIV
  pIC50 (−log IC50): 9.4
  pSI (pCC50-pIC50): −3.7
mock-infected MT-4 cells
  pCC50 (−log CC50): 5.7 M

## Cc1cc(/C=C/C#N)cc(C)c1Nc1ccnc(Nc2ccc(C#N)cc2)n1 [Compound 1, 4-[[4-[[4-(2-cyanoethenyl)-2,6-dimethylphenyl]amino]-2-pyrimidinyl]amino]benzonitrile (E)]
HIV
  IC50: 0.398 nM
  pSI (pCC50-pIC50): −4.4
mock-infected MT-4 cells; [1]
  pCC50 (−log CC50): 5.0 M

## Cc1cc(-c2ccco2)cc(C)c1Nc1ccnc(Nc2ccc(C#N)cc2)n1 [Compound 3]
HIV
  IC50: 3.98 nM
  pSI (pCC50-pIC50): −2.9

## CO/N=C(\c1cc(C)c(Nc2ccnc(Nc3ccc(C#N)cc3)n2)c(C)c1)C(C)C [Compound 9]
HIV
  IC50: 1.58 nM
  pSI (pCC50-pIC50): −4

## Cc1cc(/C=C\C#N)cc(C)c1Nc1ccnc(Nc2ccc(C#N)cc2)n1 [Compound 10]
HIV
  pSI (pCC50-pIC50): −2.9
mock-infected MT-4 cells
  pCC50 (−log CC50): 6.3 M

## C/C(C#N)=C/c1cc(C)c(Nc2ccnc(Nc3ccc(C#N)cc3)n2)c(C)c1 [Compound 11]
HIV
  pIC50 (−log IC50): 9.2
  pSI (pCC50-pIC50): −3.5
mock-infected MT-4 cells
  pCC50 (−log CC50): 5.7 M

## Cc1cc(C(O)CC#N)cc(C)c1Nc1ccnc(Nc2ccc(C#N)cc2)n1 (stereo not shown) [Compound 18]
HIV
  IC50: 1.58 nM
  pSI (pCC50-pIC50): −4.0

## Cc1cc(-c2ccsc2)cc(C)c1Nc1ccnc(Nc2ccc(C#N)cc2)n1 [Compound 21]
HIV
  IC50: 3.98 nM
  pSI (pCC50-pIC50): −3.5

## Cc1cc(CCC#N)cc(C)c1Nc1ccnc(Nc2ccc(C#N)cc2)n1 [Compound 24]
HIV
  IC50: 0.794 nM
  pSI (pCC50-pIC50): −3.4

## Cc1cc(C=CC#N)cc(C)c1Oc1ccnc(Nc2ccc(C#N)cc2)n1 [Compound 25]
HIV
  pIC50 (−log IC50): 9
  pSI (pCC50-pIC50): −5

## CC(=O)c1cccc(-c2cc(C)c(Nc3ccnc(Nc4ccc(C#N)cc4)n3)c(C)c2)c1 [Compound 34]
HIV
  IC50: 10 nM
  pSI (pCC50-pIC50): −3.2

## CC(=NO)c1cc(C)c(Nc2ccnc(Nc3ccc(C#N)cc3)n2)c(C)c1 [Compound 45]
HIV
  pIC50 (−log IC50): 8.7
  pSI (pCC50-pIC50): −3.8
mock-infected MT-4 cells
  pCC50 (−log CC50): 5.0 M

## Cc1cc(/C=C(\C#N)c2cccs2)cc(C)c1Nc1ccnc(Nc2ccc(C#N)cc2)n1 [Compound 49]
HIV
  IC50: 10 nM
  pSI (pCC50-pIC50): −3.2

## Cc1cc(Cn2ccnc2)cc(C)c1Nc1ccnc(Nc2ccc(C#N)cc2)n1 [Compound 70]
HIV
  IC50: 7.94 nM
  pSI (pCC50-pIC50): −3.3

## Cc1cc(CN(C)CCC#N)cc(C)c1Nc1ccnc(Nc2ccc(C#N)cc2)n1 [Compound 75]
HIV
  pIC50 (−log IC50): 9.0
  pSI (pCC50-pIC50): −4.0
mock-infected MT-4 cells
  pCC50 (−log CC50): 5.0 M

## Cc1cc(CN2CCSC2)cc(C)c1Nc1ccnc(Nc2ccc(C#N)cc2)n1 [Compound 78]
HIV
  IC50: 3.98 nM
  pSI (pCC50-pIC50): −3.5

## CCN(Cc1ccncc1)Cc1cc(C)c(Nc2ccnc(Nc3ccc(C#N)cc3)n2)c(C)c1 [Compound 79]
HIV
  IC50: 10 nM
  pSI (pCC50-pIC50): −2.7

## C/C(=C\C#N)c1cc(C)c(Nc2ccnc(Nc3ccc(C#N)cc3)n2)c(C)c1 [Compound 84]
HIV
  pIC50 (−log IC50): 9.0
  pSI (pCC50-pIC50): −4.5
mock-infected MT-4 cells
  pCC50 (−log CC50): 4.5 M

## Cc1cc(-n2cccc2)cc(C)c1Oc1ccnc(Nc2ccc(C#N)cc2)n1 [Compound 118]
HIV
  IC50: 3.98 nM
  pSI (pCC50-pIC50): <−4.1

## Cc1cc(/C(Cl)=C\C#N)cc(C)c1Nc1ccnc(Nc2ccc(C#N)cc2)n1 [Compound 124]
HIV
  IC50: 3.16 nM
  pSI (pCC50-pIC50): −3.8

## Cc1cc(/C=C/C#N)cc(Cl)c1Nc1ccnc(Nc2ccc(C#N)cc2)n1 [Compound 133]
HIV
  pIC50 (−log IC50): 9.2
  pSI (pCC50-pIC50): −5.2
mock-infected MT-4 cells
  pCC50 (−log CC50): 4 M

## Cc1cc(CC(C#N)C#N)cc(C)c1Nc1ccnc(Nc2ccc(C#N)cc2)n1 [Compound 144]
HIV
  pIC50 (−log IC50): 8.6
  pSI (pCC50-pIC50): −2.2
mock-infected MT-4 cells
  pCC50 (−log CC50): 6.4 M

## Cc1cc(/C=C/c2cccnc2)cc(C)c1Nc1ccnc(Nc2ccc(C#N)cc2)n1 [Compound 145]
HIV
  IC50: 2 nM
  pSI (pCC50-pIC50): −3.4

## Cc1cc(/C=C/c2cccnc2)cc(C)c1Nc1ccnc(Nc2ccc(C#N)cc2)n1 [Compound 146]
HIV
  pIC50 (−log IC50): 8.4
  pSI (pCC50-pIC50): −3
mock-infected MT-4 cells; [1]
  pCC50 (−log CC50): 5.4 M

## CC/C(=C\C#N)c1cc(C)c(Nc2ccnc(Nc3ccc(C#N)cc3)n2)c(C)c1 [Compound 148]
HIV
  pIC50 (−log IC50): 8.8
  pSI (pCC50-pIC50): −3.9
mock-infected MT-4 cells
  pCC50 (−log CC50): 4.9 M

## Cc1cc(/C(=C/C#N)C(C)C)cc(C)c1Nc1ccnc(Nc2ccc(C#N)cc2)n1 [Compound 149]
HIV
  pIC50 (−log IC50): 9.1
  pSI (pCC50-pIC50): −3.8
mock-infected MT-4 cells
  pCC50 (−log CC50): 5.3 M

## Cc1cc(/C(=C\C#N)C(C)C)cc(C)c1Nc1ccnc(Nc2ccc(C#N)cc2)n1 [Compound 150]
HIV
  pIC50 (−log IC50): 8.8
  pSI (pCC50-pIC50): −4.0
mock-infected MT-4 cells
  pCC50 (−log CC50): 4.8 M

## C/C(C#N)=C/c1cc(C)c(Nc2ccnc(Nc3ccc(C#N)cc3)n2)c(C)c1 [Compound 151]
HIV
  pIC50 (−log IC50): 9.1
  pSI (pCC50-pIC50): −3.6
mock-infected MT-4 cells
  pCC50 (−log CC50): 5.5 M

## C/C(C#N)=C/c1cc(C)c(Nc2ccnc(Nc3ccc(C#N)cc3)n2)c(C)c1 [Compound 152]
HIV
  pIC50 (−log IC50): 9.1
  pSI (pCC50-pIC50): −4.3
mock-infected MT-4 cells
  pCC50 (−log CC50): 4.8 M

## Cc1cc(CC(C)C#N)cc(C)c1Nc1ccnc(Nc2ccc(C#N)cc2)n1 (stereo not shown) [Compound 153]
HIV
  pIC50 (−log IC50): 9.2
  pSI (pCC50-pIC50): −2.9
mock-infected MT-4 cells
  pCC50 (−log CC50): 6.3 M

## Cc1cc(/C=C/C(=O)N2CCN(C)CC2)cc(C)c1Nc1ccnc(Nc2ccc(C#N)cc2)n1 [Compound 155]
HIV
  IC50: 1.58 nM
  pSI (pCC50-pIC50): −2.5

## Cc1cc(/C=C/C(=O)N2CCOCC2)cc(C)c1Nc1ccnc(Nc2ccc(C#N)cc2)n1 [Compound 156]
HIV
  IC50: 20 nM
  pSI (pCC50-pIC50): −2.6

## CCN(C)C(=O)/C=C/c1cc(C)c(Nc2ccnc(Nc3ccc(C#N)cc3)n2)c(C)c1 [Compound 158]
HIV
  pIC50 (−log IC50): 8
  pSI (pCC50-pIC50): −2.5
mock-infected MT-4 cells
  pCC50 (−log CC50): 5.5 M

## Cc1cc(CN(C)C=NC#N)cc(C)c1Oc1ccnc(Nc2ccc(C#N)cc2)n1 [Compound 174]
HIV
  pIC50 (−log IC50): 8.8
  pSI (pCC50-pIC50): −3.5
mock-infected MT-4 cells
  pCC50 (−log CC50): 5.3 M

## Cc1cc(/C=C\Br)cc(C)c1Oc1ccnc(Nc2ccc(C#N)cc2)n1 [Compound 177]
HIV
  pIC50 (−log IC50): 8.3
  pSI (pCC50-pIC50): <−4.3
mock-infected MT-4 cells
  pCC50 (−log CC50): <4.0 M

## C/C(C#N)=C/c1cc(C)c(Oc2ccnc(Nc3ccc(C#N)cc3)n2)c(C)c1 [Compound 178]
HIV
  pIC50 (−log IC50): 8.8
  pSI (pCC50-pIC50): −3.1
mock-infected MT-4 cells
  pCC50 (−log CC50): 5.7 M

## C/C(C#N)=C\c1cc(C)c(Oc2ccnc(Nc3ccc(C#N)cc3)n2)c(C)c1 [Compound 179]
HIV
  pIC50 (−log IC50): 8.9
  pSI (pCC50-pIC50): <−4.9
mock-infected MT-4 cells
  pCC50 (−log CC50): <4.0 M

## Cc1cc(/C=C/C(=O)N2CC=CC2)cc(C)c1Oc1ccnc(Nc2ccc(C#N)cc2)n1 [Compound 209]
HIV
  IC50: 2.51 nM
  pSI (pCC50-pIC50): −3.7

## Cc1cc(/C=C/C(=O)N(C)C2CCN(C)CC2)cc(C)c1Oc1ccnc(Nc2ccc(C#N)cc2)n1 [Compound 210]
HIV
  IC50: 5.01 nM
  pSI (pCC50-pIC50): −3.5

## Cc1cc(/C=C/C(=O)N(C)CC#N)cc(C)c1Oc1ccnc(Nc2ccc(C#N)cc2)n1 [Compound 212]
HIV
  pIC50 (−log IC50): 9.1
  pSI (pCC50-pIC50): −4.1
mock-infected MT-4 cells
  pCC50 (−log CC50): 5 M

## CC(=CC#N)c1cc(C)c(Oc2ccnc(Nc3ccc(C#N)cc3)n2)c(C)c1 [Compound 213]
HIV
  pIC50 (−log IC50): 9
  pSI (pCC50-pIC50): −4.2
mock-infected MT-4 cells
  pCC50 (−log CC50): 4.8 M

## Cc1cc(/C=C/C(=O)N(C)CCC#N)cc(C)c1Oc1ccnc(Nc2ccc(C#N)cc2)n1 [Compound 214]
HIV
  pIC50 (−log IC50): 8.6
  pSI (pCC50-pIC50): −3.5
mock-infected MT-4 cells
  pCC50 (−log CC50): 5.1 M

## CCN(C)C(=O)/C=C/c1cc(C)c(Oc2ccnc(Nc3ccc(C#N)cc3)n2)c(C)c1 [Compound 215]
HIV
  pIC50 (−log IC50): 9.1
  pSI (pCC50-pIC50): −3.6
mock-infected MT-4 cells
  pCC50 (−log CC50): 5.5 M

## Cc1cc(/C=C/C(=O)N2CCOCC2)cc(C)c1Oc1ccnc(Nc2ccc(C#N)cc2)n1 [Compound 216]
HIV
  IC50: 6.31 nM
  pSI (pCC50-pIC50): −3.6

## Cc1cc(/C=C/C(=O)N(C)C)cc(C)c1Oc1ccnc(Nc2ccc(C#N)cc2)n1 [Compound 219]
HIV
  pIC50 (−log IC50): 9.1
  pSI (pCC50-pIC50): −4.1
mock-infected MT-4 cells
  pCC50 (−log CC50): 5 M

## Cc1cc(CCC#N)ccc1Nc1ccnc(Nc2ccc(C#N)cc2)n1 [Compound 227]
HIV
  pIC50 (−log IC50): 9.5
  pSI (pCC50-pIC50): <−5.5
mock-infected MT-4 cells
  pCC50 (−log CC50): <4.0 M

## CC(C#N)=Cc1ccc(Nc2ccnc(Nc3ccc(C#N)cc3)n2)c(C)c1 [Compound 229]
HIV
  pIC50 (−log IC50): 8.8
  pSI (pCC50-pIC50): <−4.8
mock-infected MT-4 cells
  pCC50 (−log CC50): <4.0 M

## Cc1cc(/C=C/C#N)ccc1Oc1ccnc(Nc2ccc(C#N)cc2)n1 [Compound 230]
HIV
  pIC50 (−log IC50): 9.2
  pSI (pCC50-pIC50): <−5.2
mock-infected MT-4 cells
  pCC50 (−log CC50): <4.0 M
